Test results taken from ChEMBL document CHEMBL3885861, “Open TG-GATES”.

Species on record: Rattus norvegicus
Assay: Open TG-GATES - Regimen: Daily Repeat
Assay type: toxicity, organism-based, Sprague-Dawley
Parameters: regimen Daily Repeat, gender Male, age 6 weeks
Details: in vivo, po, route gavage; for Bas / Eos / Fbg / Ht / MCHC / Mono / Plat / RBC / Ret / WBC / MCV: tissue Blood; for KIDNEY_L / KIDNEY_R / KIDNEY_TOTAL: tissue Kidney; for ALT / AST / CRE / DBIL / GLC / IP / K / LDH / PL / RALB / TBIL / TC / TG / TP / gamma-GTP: tissue Plasma
[1] = 100 mg/kg, 72 h, dose level Middle, time 3 day
[2] = 100 mg/kg, […], dose level Middle, time 7 day
[3] = 100 mg/kg, […], dose level Middle, time 14 day
[4] = 100 mg/kg, […], dose level Middle, time 28 day
[5] = 1000 mg/kg, 72 h, dose level High, time 3 day
[6] = 1000 mg/kg, […], dose level High, time 7 day
[7] = 1000 mg/kg, […], dose level High, time 14 day
[8] = 1000 mg/kg, […], dose level High, time 28 day

Compound: CC(C)OC(=O)C(C)(C)Oc1ccc(C(=O)c2ccc(Cl)cc2)cc1 [FENOFIBRATE]
- TERMINAL_BW [1]: 219 g
- Bas [1]: 0.2%
- Eos [1]: 1%
- Fbg [1]: 242.4 mg/dL
- Ht [1]: 40.5%
- MCHC [1]: 32.9%
- Mono [1]: 3.4%
- Plat [1]: 110.8 x10_4/uL
- RBC [1]: 619.6 x10_4/ul
- Ret [1]: 6.7%
- WBC [1]: 92.3 x10_2/uL
- KIDNEY_L [1]: 1 g
- KIDNEY_R [1]: 1 g
- KIDNEY_TOTAL [1]: 1.9 g
- ALT [1]: 52 IU/L
- AST [1]: 77.6 IU/L
- CRE [1]: 0.2 mg/dL
- DBIL [1]: 0.012 mg/dL
- GLC [1]: 184.2 mg/dL
- IP [1]: 7.5 mg/dL
- K [1]: 4.1 meq/L
- LDH [1]: 90 IU/L
- PL [1]: 118.6 mg/dL
- RALB [1]: 2.6 g/dL
- TBIL [1]: 0.034 mg/dL
- TC [1]: 58.6 mg/dL
- TG [1]: 41.6 mg/dL
- TP [1]: 5.5 g/dL
- gamma-GTP [1]: 1.2 IU/L
- TERMINAL_BW [2]: 251.5 g
- TERMINAL_BW [3]: 311 g
- TERMINAL_BW [4]: 352.5 g
- Bas [2]: 0.2%
- Eos [2]: 1%
- Fbg [2]: 232.2 mg/dL
- Ht [2]: 40.3%
- MCHC [2]: 32.4%
- Mono [2]: 4%
- Plat [2]: 127.1 x10_4/uL
- RBC [2]: 650.8 x10_4/ul
- Ret [2]: 5.7%
- WBC [2]: 98.5 x10_2/uL
- Bas [3]: 0%
- Eos [3]: 0.8%
- Fbg [3]: 230 mg/dL
- Ht [3]: 40.9%
- MCHC [3]: 32.9%
- Mono [3]: 3.2%
- Plat [3]: 131.7 x10_4/uL
- RBC [3]: 660.8 x10_4/ul
- Ret [3]: 5.1%
- WBC [3]: 106.3 x10_2/uL
- Bas [4]: 0.8%
- Eos [4]: 1.2%
- Fbg [4]: 207.2 mg/dL
- Ht [4]: 44.3%
- MCHC [4]: 33.6%
- MCV [4]: 56.8 fL
- Mono [4]: 3.2%
- Plat [4]: 107.6 x10_4/uL
- RBC [4]: 780.8 x10_4/ul
- Ret [4]: 2.4%
- WBC [4]: 148.1 x10_2/uL
- KIDNEY_L [2]: 1.1 g
- KIDNEY_R [2]: 1.1 g
- KIDNEY_TOTAL [2]: 2.2 g
- KIDNEY_L [3]: 1.3 g
- KIDNEY_R [3]: 1.3 g
- KIDNEY_TOTAL [3]: 2.6 g
- KIDNEY_L [4]: 1.4 g
- KIDNEY_R [4]: 1.4 g
- KIDNEY_TOTAL [4]: 2.8 g
- ALT [2]: 41.2 IU/L
- AST [2]: 67.8 IU/L
- CRE [2]: 0.2 mg/dL
- DBIL [2]: 0.012 mg/dL
- GLC [2]: 186.8 mg/dL
- IP [2]: 8 mg/dL
- K [2]: 4.3 meq/L
- LDH [2]: 126.2 IU/L
- PL [2]: 119.8 mg/dL
- RALB [2]: 2.8 g/dL
- TBIL [2]: 0.028 mg/dL
- TC [2]: 55.6 mg/dL
- TG [2]: 47.4 mg/dL
- TP [2]: 5.9 g/dL
- gamma-GTP [2]: 1 IU/L
- ALT [3]: 43 IU/L
- AST [3]: 69 IU/L
- CRE [3]: 0.2 mg/dL
- DBIL [3]: 0.014 mg/dL
- GLC [3]: 192.8 mg/dL
- IP [3]: 6.9 mg/dL
- K [3]: 4.1 meq/L
- LDH [3]: 106.8 IU/L
- PL [3]: 135.2 mg/dL
- RALB [3]: 2.8 g/dL
- TBIL [3]: 0.026 mg/dL
- TC [3]: 57.8 mg/dL
- TG [3]: 78 mg/dL
- TP [3]: 6 g/dL
- gamma-GTP [3]: 1 IU/L
- ALT [4]: 47.6 IU/L
- AST [4]: 69.2 IU/L
- CRE [4]: 0.2 mg/dL
- DBIL [4]: 0.016 mg/dL
- GLC [4]: 179 mg/dL
- IP [4]: 7.6 mg/dL
- K [4]: 3.8 meq/L
- LDH [4]: 110.8 IU/L
- PL [4]: 129.8 mg/dL
- RALB [4]: 3 g/dL
- TBIL [4]: 0.036 mg/dL
- TC [4]: 55 mg/dL
- TG [4]: 60.2 mg/dL
- TP [4]: 6.5 g/dL
- gamma-GTP [4]: 1.2 IU/L
- TERMINAL_BW [5]: 215.9 g
- Bas [5]: 0.4%
- Eos [5]: 1%
- Fbg [5]: 208.2 mg/dL
- Ht [5]: 39.5%
- MCHC [5]: 33%
- Mono [5]: 3.6%
- Plat [5]: 105.8 x10_4/uL
- RBC [5]: 610.6 x10_4/ul
- Ret [5]: 5.6%
- WBC [5]: 91.7 x10_2/uL
- KIDNEY_L [5]: 0.9 g
- KIDNEY_R [5]: 1 g
- KIDNEY_TOTAL [5]: 1.9 g
- ALT [5]: 51.4 IU/L
- AST [5]: 83.8 IU/L
- CRE [5]: 0.2 mg/dL
- DBIL [5]: 0.022 mg/dL
- GLC [5]: 176.8 mg/dL
- IP [5]: 7.3 mg/dL
- K [5]: 4.3 meq/L
- LDH [5]: 105.8 IU/L
- PL [5]: 129.2 mg/dL
- RALB [5]: 2.6 g/dL
- TBIL [5]: 0.048 mg/dL
- TC [5]: 57 mg/dL
- TG [5]: 33.6 mg/dL
- TP [5]: 5.4 g/dL
- gamma-GTP [5]: 1 IU/L
- TERMINAL_BW [6]: 248.7 g
- TERMINAL_BW [7]: 269.5 g
- TERMINAL_BW [8]: 320.8 g
- Bas [6]: 0%
- Eos [6]: 1%
- Fbg [6]: 222.2 mg/dL
- Ht [6]: 39.1%
- MCHC [6]: 32.3%
- Mono [6]: 3.4%
- Plat [6]: 147.3 x10_4/uL
- RBC [6]: 612.2 x10_4/ul
- Ret [6]: 5.8%
- WBC [6]: 113.4 x10_2/uL
- Bas [7]: 0.4%
- Eos [7]: 1%
- Fbg [7]: 192.8 mg/dL
- Ht [7]: 39.9%
- MCHC [7]: 33.3%
- MCV [7]: 58.7 fL
- Mono [7]: 3.4%
- Plat [7]: 135.5 x10_4/uL
- RBC [7]: 679.4 x10_4/ul
- Ret [7]: 5.1%
- WBC [7]: 149.7 x10_2/uL
- Bas [8]: 0.4%
- Eos [8]: 1.2%
- Fbg [8]: 194.2 mg/dL
- Ht [8]: 40.9%
- MCHC [8]: 33.4%
- MCV [8]: 57.2 fL
- Mono [8]: 3.4%
- Plat [8]: 117.4 x10_4/uL
- RBC [8]: 716 x10_4/ul
- Ret [8]: 3.9%
- WBC [8]: 132.1 x10_2/uL
- KIDNEY_L [6]: 1.1 g
- KIDNEY_R [6]: 1.1 g
- KIDNEY_TOTAL [6]: 2.2 g
- KIDNEY_L [7]: 1.2 g
- KIDNEY_R [7]: 1.2 g
- KIDNEY_TOTAL [7]: 2.4 g
- KIDNEY_L [8]: 1.4 g
- KIDNEY_R [8]: 1.4 g
- KIDNEY_TOTAL [8]: 2.8 g
- ALT [6]: 45.8 IU/L
- AST [6]: 80.6 IU/L
- CRE [6]: 0.2 mg/dL
- DBIL [6]: 0.018 mg/dL
- GLC [6]: 178.8 mg/dL
- IP [6]: 7.4 mg/dL
- K [6]: 4.4 meq/L
- LDH [6]: 122.6 IU/L
- PL [6]: 142 mg/dL
- RALB [6]: 3 g/dL
- TBIL [6]: 0.034 mg/dL
- TC [6]: 65.8 mg/dL
- TG [6]: 38 mg/dL
- TP [6]: 6.1 g/dL
- gamma-GTP [6]: 1 IU/L
- ALT [7]: 70 IU/L
- AST [7]: 160.6 IU/L
- CRE [7]: 0.2 mg/dL
- DBIL [7]: 0.022 mg/dL
- GLC [7]: 170.2 mg/dL
- IP [7]: 6.6 mg/dL
- K [7]: 4.1 meq/L
- LDH [7]: 226.2 IU/L
- PL [7]: 138 mg/dL
- RALB [7]: 2.9 g/dL
- TBIL [7]: 0.052 mg/dL
- TC [7]: 50.6 mg/dL
- TG [7]: 45.4 mg/dL
- TP [7]: 6 g/dL
- gamma-GTP [7]: 1 IU/L
- ALT [8]: 55.8 IU/L
- AST [8]: 132 IU/L
- CRE [8]: 0.2 mg/dL
- DBIL [8]: 0.024 mg/dL
- GLC [8]: 176 mg/dL
- IP [8]: 7.3 mg/dL
- K [8]: 3.7 meq/L
- LDH [8]: 205.2 IU/L
- PL [8]: 139.8 mg/dL
- RALB [8]: 2.9 g/dL
- TBIL [8]: 0.06 mg/dL
- TC [8]: 62.4 mg/dL
- TG [8]: 47.6 mg/dL
- TP [8]: 6.2 g/dL
- gamma-GTP [8]: 1.2 IU/L
